Experimental data taken from US8343539B2, “Compounds that bind α5β1 integrin and methods of use” (Regents of the University of Minnesota, priority 2006, dated 2013).
“Also recorded” adds a separate entry of the source. Primed or numbered codes have the meaning given here. Where no end group is shown, it is not given here. [ ]: non-standard residue; d: D form. (C16)2‑Glu‑C2″ = N-terminal tail: two C16 chains, glutamic acid linker, -(CH2)2- spacer; (C16)2‑Glu‑C2 = lipid tail; Abu = CC[C@H](N)C(=O)O

Experiments:
HUVECs [1] = assay: HUVEC spreading on substrates (cell area); format: cell-based, human; details: for HUVEC spreading (cell area): 1-24 hours; for HUVEC spreading, rank among surfaces: all times examined, 1-72 hours
Protocol: (§1) Cell spreading and fibronectin production experiments: Surface transferring, cell seeding, and incubation were done in the same manner as in the adhesion experiment, with a cell density of 497 cells/mm^2, and incubation times of 1, 12, 24, 48, and 72 hour. At the end of each incubation, the surfaces were removed, washed with […] of PBS, and fixed in 1 ml of 4% paraformaldehyde (Sigma) in PBS for 15 minutes at 37° C., 5% CO2. After washing with PBS, surfaces were first labeled for secreted fibronectin: surfaces were subjected to a blocking solution (0.1% BSA in PBS) for 30 minutes, incubated for 1 hour with a primary antibody specific for secreted fibronectin (mouse anti-human fibronectin (P1H11) monoclonal antibody (Chemicon Int.) at a 1:500 dilution in blocking solution, and then for 45 minutes with a secondary antibody (IgG fluorescein (FITC) conjugated antibody; Chemicon Int.) at a 1:200 dilution in PBS. As a final step, cell membranes and nuclei were stained using the Image-iT™ LIVE Plasma Membrane and Nuclear Labeling Kit following the manufacturer's protocol for labeling fixed cells (Molecular Probes). After final washing, surfaces were mounted onto glass slides and stored at 4° C. protected from light. An inverted fluorescent microscope (Nikon Eclipse TE200 with Pixcell II LCM) was used for imaging. Fibronectin production was assessed visually, by comparing 10-20 fluorescence images from two samples for each substrate (two independent experiments performed at different days). Cell spreading was quantified from two samples per substrate (two independent experiments performed at different days) by measuring cell area with the NIH imaging software.

HUVECs [2] = assay: Extracellular fibronectin production by HUVECs (Example 1); format: cell-based, human; details: for Fibronectin production by adhered HUVECs: 12 and 24 hours; for Fibronectin secretion by adhered HUVECs: after 48 hours
Protocol: as §1

HUVECs [3] = assay: Actin cytoskeleton and focal adhesion staining; format: cell-based, human; details: for Actin fibers and focal adhesion points: 12 hours
Protocol: Actin cytoskeleton and focal adhesion staining: Surface transferring, cell seeding, incubation, and fixing were done as described above. Staining for the actin cytoskeleton, focal adhesions, and nucleus of attached cells was done using the Actin Cytoskeleton and Focal Adhesion Staining Kit following the manufacturer's protocol (Chemicon Int.) and using 1:350 dilution for anti-vinculin antibody, 1:200 for the secondary antibody, approximately 1:1000 dilution (equivalent to 1 unit/surface) for TRITC-conjugated phalloidin and 1:1000 for DAPI. After washing, surfaces were mounted onto glass slides and stored at 4° C. protected from light. A confocal microscope (BIORAD Multiphoton Confocal 1024) was used for imaging.

integrin αvβ3 = target: T1, integrin αvβ3 (Homo sapiens, UniProt P05106+P06756); assay: Adhesion blocking with anti-integrin αvβ3 antibody (LM609); format: cell-based; details: anti-αvβ3 antibody 20 μg/ml, 1 hour, HUVECs 249 cells/mm^2
T1 construct: HUVECs were prepared and counted as described in the cell adhesion protocol; endogenous in cells; host or cells: HUVEC (human umbilical vein endothelial cells)
Protocol: Adhesion blocking experiments: Blocking experiments were done using mouse anti-human integrin as (P1D6), β1 (P5D2), α5β1 (JBS5), and αvβ3 (LM609) monoclonal antibodies (Chemicon Int.). All surfaces were transferred to 24- or 12-well plates and pre-incubated in 0.1% BSA media as described above. HUVECs were prepared and counted as described in the cell adhesion protocol. Cells were blocked by mixing the cell suspension with the appropriate antibody in 0.1% BSA media, and incubating for 30 minutes at 37° C., 5% CO2 with constant agitation. Blocked cells were then released onto LB and FN surfaces and allowed to adhere for 1 hour at 37° C., 5% CO2. […] Following incubation, surfaces were washed, and adhered cells were quantified as described in the cell adhesion protocol.

HUVECs [4] = assay: HUVEC adhesion on LB membranes of peptide-amphiphiles (Example 1); format: cell-based, human; details: 1-72 hours, no serum
Description: Surface preparation: Peptide-amphiphiles, listed in Table 1, were synthesized as described in the literature (Berndt et al., J. Am. Chem. Soc., 1995; 117:9515-9522). Langmuir-Blodgett (LB) membranes constructed from peptide-amphiphiles were deposited onto 15 mm mica disks as described elsewhere (Kokkoli et al., Langmuir, 2004; 20:2397-2404). Shortly before cell assays, the LB films were transferred into 24-well plates containing 1× phosphate buffered saline (PBS) solution (Mediatech), without exposing surfaces to air, as they rearrange to form multilayers (Hansma et al., Method. Cell Biol., 2002; 69:163-193). After equilibrating for 5-10 minutes, PBS was exchanged with 1 ml of MCDB-131 basal media (Sigma) supplemented with 0.1% bovine serum albumin (BSA) (Sigma) and antibiotics (Sigma) (2.5 μg/ml gentamicin, 2.5 μg/ml amphotericin B, 50 U/ml penicillin, and 50 μg/ml streptomycin), referred to as 0.1% BSA media. Surfaces were equilibrated at 37° C., 5% CO2 for 30-60 minutes before adding the cells. Human fibronectin-coated round coverslips (FN) 22 mm in diameter (BD Biosciences) were put into 12-well plates and 2 ml of 0.1% BSA media was added to each well. Surfaces were equilibrated for 30-60 minutes at 37° C., 5% CO2.
Cell culture: Human umbilical vein endothelial cells, HUVECs, (Cambrex Corporation) were cultured in MCDB-131 containing 20% fetal bovine serum (FBS) (Atlas Biologicals) at 37° C., 5% CO2. Other nutrients and antibiotics supplementing the media were added based on an optimal HUVEC proliferation study (Terramani et al., In Vitro Cell Dev. Biol.—Animal, 2000; 36:125-132). Media was changed in the culture flasks every other day. Cells used for adhesion and imaging studies were in passages 3-4.
Cell adhesion experiments: After cells became 90% confluent they were washed with PBS, trypsinized with 0.25% Trypsin-EDTA (Cambrex Corporation), neutralized with MCDB-131 with 2% FBS, and spun at 1000 rpm for 10 minutes. The supernatant was removed and the cell pellet was resuspended in 0.1% BSA media. Cells were counted with a hemocytometer and seeded onto LB and FN surfaces at a density of 497 cells/mm^2. Surfaces were incubated with cells in 0.1% BSA media at 37° C., 5% CO2, for 1, 4, 12, 24, 48, and 72 hours. Cell adhesion was quantified using the CyQuant Cell Proliferation Assay Kit, with a dye that binds to cellular nucleic acids, following the manufacturer's protocol (Molecular Probes). A calibration standard curve was created for each experiment. The plates were read on a SpectraMAX GeminiXS (Molecular Devices).

α5β1 integrin = α5β1 integrin (Homo sapiens, UniProt P05556+P08648); details: inferred from literature on polyglycine linkers (Petrie 2006); cited from earlier work
Chain of α5β1 integrin (P08648 42-894 limits assumed): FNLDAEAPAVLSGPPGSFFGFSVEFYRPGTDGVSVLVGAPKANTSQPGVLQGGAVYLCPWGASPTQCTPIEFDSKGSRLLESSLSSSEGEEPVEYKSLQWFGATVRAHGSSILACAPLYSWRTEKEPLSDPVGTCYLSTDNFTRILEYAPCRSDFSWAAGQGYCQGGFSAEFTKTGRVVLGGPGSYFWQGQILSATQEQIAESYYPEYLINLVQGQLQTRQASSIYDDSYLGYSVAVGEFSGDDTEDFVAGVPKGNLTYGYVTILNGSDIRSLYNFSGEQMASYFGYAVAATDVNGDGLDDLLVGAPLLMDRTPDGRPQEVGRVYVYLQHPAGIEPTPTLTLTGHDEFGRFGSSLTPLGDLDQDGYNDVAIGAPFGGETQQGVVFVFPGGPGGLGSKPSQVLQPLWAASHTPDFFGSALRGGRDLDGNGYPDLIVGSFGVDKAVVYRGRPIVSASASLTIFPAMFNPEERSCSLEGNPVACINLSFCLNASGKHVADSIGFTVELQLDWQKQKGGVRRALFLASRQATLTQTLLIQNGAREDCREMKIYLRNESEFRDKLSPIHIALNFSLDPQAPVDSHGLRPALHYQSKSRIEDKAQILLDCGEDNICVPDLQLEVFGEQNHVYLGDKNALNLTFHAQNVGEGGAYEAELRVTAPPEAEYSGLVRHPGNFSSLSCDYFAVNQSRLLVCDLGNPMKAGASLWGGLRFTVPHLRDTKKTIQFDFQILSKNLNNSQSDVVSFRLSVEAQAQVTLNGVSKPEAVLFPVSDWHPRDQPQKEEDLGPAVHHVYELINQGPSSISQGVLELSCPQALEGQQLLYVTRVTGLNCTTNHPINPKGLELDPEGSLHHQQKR
Chain of α5β1 integrin (P08648 895-1049 partner limits assumed): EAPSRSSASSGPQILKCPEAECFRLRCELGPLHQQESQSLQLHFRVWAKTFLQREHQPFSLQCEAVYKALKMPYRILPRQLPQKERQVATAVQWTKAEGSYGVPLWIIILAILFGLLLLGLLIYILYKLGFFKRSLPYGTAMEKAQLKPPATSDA
Chain of α5β1 integrin (P05556 21-798): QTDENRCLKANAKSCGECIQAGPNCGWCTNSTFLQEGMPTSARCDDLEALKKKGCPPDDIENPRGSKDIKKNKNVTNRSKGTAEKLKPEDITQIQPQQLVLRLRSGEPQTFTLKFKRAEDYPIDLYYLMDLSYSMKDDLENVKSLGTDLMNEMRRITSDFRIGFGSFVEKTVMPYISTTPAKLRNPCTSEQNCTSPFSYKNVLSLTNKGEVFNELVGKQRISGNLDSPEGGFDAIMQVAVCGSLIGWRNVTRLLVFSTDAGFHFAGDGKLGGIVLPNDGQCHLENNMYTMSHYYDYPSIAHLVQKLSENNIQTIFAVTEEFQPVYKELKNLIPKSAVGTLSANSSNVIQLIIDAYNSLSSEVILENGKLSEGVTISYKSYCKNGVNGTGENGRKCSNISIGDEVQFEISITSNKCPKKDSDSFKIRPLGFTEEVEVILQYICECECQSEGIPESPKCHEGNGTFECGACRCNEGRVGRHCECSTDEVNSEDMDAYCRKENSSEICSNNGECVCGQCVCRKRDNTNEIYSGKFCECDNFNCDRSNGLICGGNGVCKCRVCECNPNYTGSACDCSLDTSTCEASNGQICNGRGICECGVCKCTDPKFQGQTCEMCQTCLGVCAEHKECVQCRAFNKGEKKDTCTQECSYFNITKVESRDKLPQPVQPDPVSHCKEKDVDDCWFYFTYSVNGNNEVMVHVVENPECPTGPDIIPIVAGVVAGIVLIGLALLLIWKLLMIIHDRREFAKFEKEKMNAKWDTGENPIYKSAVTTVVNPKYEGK

HUVECs [5] = assay: HUVEC adhesion timed experiments on LB membranes (Example 2); format: cell-based, human; details: for Maintenance / decay of HUVEC adhesion over time: up to 12 hours
Protocol: Surface preparation: Each peptide-amphiphile was used to form homogenous LB membranes as in previous work (Kokkoli Langmuir 2004; 20:2397-2404), except that both the water and 15 mm mica disks used had been autoclaved for sterility. All depositions were done at a surface pressure between 41 and 47 mN/m, well below the collapse pressure and in the liquid-condensed or solid phase. Approximately 90 minutes before cells were seeded on the LB films to begin cell adhesion experiments, mica surfaces were transferred into 1× phosphate buffered saline (PBS), with particular care taken to ensure films were not exposed to air. After 5-10 minutes of equilibration, surfaces were transferred into 24-well plates containing a supplemented MCDB-131 basal media (Sigma), as described in Example 1. Following surface transfer, 24-well plates were moved to a 37° C., 5% CO2 incubator for 45-60 minutes. As a control, 22 mm diameter human fibronectin-coated coverslips (BD Biosciences), referred to as FN, were put into 12-well plates, covered with 2 ml of the supplemented media, and also incubated for 45-60 minutes.
Cell culture: Human umbilical vein endothelial cells, HUVECs (Cambrex Corporation), were cultured as described previously (see Example 1). Only cells from passage 3 were used in all studies.
Cell adhesion experiments: Flasks of HUVECs with at least 90% confluency were washed with 1×PBS, trypsinized with 0.25% Trypsin-EDTA (Fisher Scientific), and neutralized with 2% fetal bovine serum in MCDB-131 basal media. The suspended cells from all flasks were placed in one 50 ml centrifuge tube and centrifuged at 1000 rpm for 5 minutes. The media was removed and the cell pellet was resuspended in the supplemented media described above. A hemocytometer was used to count the cells and then 497 cells/mm^2 were seeded onto both LB and FN surfaces. Surfaces were incubated with cells at 37° C., 5% CO2 for 1, 4, or 12 hours. Cell adhesion following these times was determined using the CyQuant cell proliferation assay kit (Molecular Probes), which measures the fluorescence of a cellular nucleic acid-binding dye using the SpectraMAX GeminiXS plate reader (Molecular Devices). Standard calibration curves were created within each experiment for both 12- and 24-well plates.

HUVECs [6] = assay: Fibronectin production staining (Example 2); format: cell-based, human; details: 12 hours
Protocol: Fibronectin production staining: Surface preparation, transfer, and cellular work were all done as described in the previous methods. Only surfaces incubated with cells for 12 hours were stained. The staining protocol, involving a primary antibody for secreted fibronectin (Chemicon), a FITC-conjugated secondary antibody (Chemicon), and the Image-iT LIVE plasma membrane and nuclear labeling kit (Molecular Probes), was done as previously described in Example 1. A single photon confocal microscope (Olympus FluoView FV1000) was used for imaging. Two slides per substrate were prepared each during 2 separate experiments and each slide was imaged 2-4 times. The final images chosen were all taken from one experiment for consistency, but were representative of the images obtained from both experiments.

[7] = target: T2, mouse α5β1 integrin on CT26.WT cells (mouse, UniProt P11688 45-1053; P09055 21-798); assay: flow cytometry, PR_b stealth liposomes on CT26.WT cells, 4 °C, 3 hrs
T2 construct: whole, on cells; Endogenous on mouse colon carcinoma cells; also called integrin α5β1 expressing CT26.WT cells
T2 sequence (P11688 45-1053, chain 1 of 2): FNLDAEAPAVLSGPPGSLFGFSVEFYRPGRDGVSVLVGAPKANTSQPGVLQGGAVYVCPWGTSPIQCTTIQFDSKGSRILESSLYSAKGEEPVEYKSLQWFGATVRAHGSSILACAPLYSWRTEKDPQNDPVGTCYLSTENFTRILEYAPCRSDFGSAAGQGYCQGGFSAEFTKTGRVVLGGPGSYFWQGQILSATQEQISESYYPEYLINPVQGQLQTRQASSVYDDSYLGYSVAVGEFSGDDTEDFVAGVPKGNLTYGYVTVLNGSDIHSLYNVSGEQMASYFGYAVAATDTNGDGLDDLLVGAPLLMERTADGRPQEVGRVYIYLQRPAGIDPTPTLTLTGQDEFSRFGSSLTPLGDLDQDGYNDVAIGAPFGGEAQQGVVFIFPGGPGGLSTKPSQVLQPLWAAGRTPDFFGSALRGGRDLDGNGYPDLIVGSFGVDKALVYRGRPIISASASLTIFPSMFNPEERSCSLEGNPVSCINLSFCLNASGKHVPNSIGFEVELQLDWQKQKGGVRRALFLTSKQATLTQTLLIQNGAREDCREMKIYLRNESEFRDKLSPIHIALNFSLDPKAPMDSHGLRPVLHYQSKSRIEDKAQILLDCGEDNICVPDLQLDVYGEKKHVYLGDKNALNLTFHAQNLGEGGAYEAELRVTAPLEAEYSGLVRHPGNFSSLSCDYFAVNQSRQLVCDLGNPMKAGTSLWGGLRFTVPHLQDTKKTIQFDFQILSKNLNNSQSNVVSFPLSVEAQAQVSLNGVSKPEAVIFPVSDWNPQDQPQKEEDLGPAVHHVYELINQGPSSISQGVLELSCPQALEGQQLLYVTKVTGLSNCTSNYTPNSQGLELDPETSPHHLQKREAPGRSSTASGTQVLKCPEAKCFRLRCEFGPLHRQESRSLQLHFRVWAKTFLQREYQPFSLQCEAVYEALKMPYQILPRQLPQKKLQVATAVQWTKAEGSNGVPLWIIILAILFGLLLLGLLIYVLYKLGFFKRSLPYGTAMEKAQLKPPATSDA
T2 sequence (P09055 21-798, chain 2 of 2): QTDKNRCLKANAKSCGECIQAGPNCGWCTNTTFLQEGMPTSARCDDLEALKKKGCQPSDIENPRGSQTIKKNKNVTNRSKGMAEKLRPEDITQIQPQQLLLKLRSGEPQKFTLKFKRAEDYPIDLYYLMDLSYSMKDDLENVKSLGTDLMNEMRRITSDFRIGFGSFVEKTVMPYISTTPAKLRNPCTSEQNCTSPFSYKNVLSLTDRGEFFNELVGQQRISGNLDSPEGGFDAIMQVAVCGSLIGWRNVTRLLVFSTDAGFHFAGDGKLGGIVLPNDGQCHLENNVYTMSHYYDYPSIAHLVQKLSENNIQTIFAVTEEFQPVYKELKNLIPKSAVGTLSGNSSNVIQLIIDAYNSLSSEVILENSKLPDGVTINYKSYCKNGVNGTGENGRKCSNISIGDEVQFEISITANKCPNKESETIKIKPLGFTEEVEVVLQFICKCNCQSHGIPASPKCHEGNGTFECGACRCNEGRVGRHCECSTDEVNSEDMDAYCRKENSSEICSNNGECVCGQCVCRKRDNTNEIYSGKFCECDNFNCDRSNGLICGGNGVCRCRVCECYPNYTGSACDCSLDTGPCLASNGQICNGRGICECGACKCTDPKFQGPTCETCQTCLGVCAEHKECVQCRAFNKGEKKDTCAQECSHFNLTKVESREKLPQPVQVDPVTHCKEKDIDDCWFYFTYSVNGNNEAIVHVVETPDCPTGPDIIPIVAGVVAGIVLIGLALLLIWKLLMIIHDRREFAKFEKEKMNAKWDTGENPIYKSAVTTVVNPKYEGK
Protocol: Tubes were incubated at 4° C. or 37° C. over a rotary shaker for the specified duration of time. Cells were then pelleted and washed twice in FB. Flow cytometric analysis was carried out immediately. For peptide blocking experiments, the protocol specified above was used except cells were incubated with 200 µg/ml of free peptide-amphiphile in FB for one hour prior to incubating the cells with the liposomes. […] All experiments were repeated twice but results are presented from a single experiment.

[8] = target: T2, mouse α5β1 integrin on CT26.WT cells; assay: flow cytometry, liposomes on CT26.WT cells, 4 °C, 3 hrs

In the case of (C16)2-Glu-C2-GRGDSP, the “HUVEC spreading (cell area)” value (HUVECs [1]) is reported as “higher compared to GRGESP, but much smaller than FN”, the “Fibronectin production by adhered HUVECs” value (HUVECs [2]) is reported as “significantly less compared to FN and PR_b” and the “Fibronectin secretion by adhered HUVECs” value (HUVECs [2]) is reported as “minimal fibronectin secretion”. For the same molecule, the “Focal adhesion contacts (vinculin)” value (HUVECs [3]) was “did not form strong focal adhesion contacts”, the “Actin fibers and focal adhesion points” value (HUVECs [3]) was “some actin fiber formation” and the Actin organization (HUVECs [3]; 24 hours) was “actin organization became less pronounced”. The “reduction in cell adhesion compared to adhesion of non-blocked cells” value (integrin αvβ3) was 75.99±1.51% and the “Ability of substrate to sustain HUVEC adhesion over time” value (“Ability of substrate … over time” below) (HUVECs [4]) was “failed to sustain HUVEC adhesion after 48 hours; also recorded: failed to sustain cell adhesion after 48 hours”.

In the case of “(C16)2-Glu-C2-GRGESP ({(C16)2‑Glu‑C2}-GRGESP) [negative control peptide-amphiphile]”, the “HUVEC spreading (cell area)” value (HUVECs [1]) is reported as “smallest”, the “Fibronectin production by adhered HUVECs” value (HUVECs [2]) is reported as “significantly less compared to FN and PR_b” and the “Fibronectin secretion by adhered HUVECs” value (HUVECs [2]) is reported as “minimal fibronectin secretion”. The “Actin fibers and focal adhesion points” value (HUVECs [3]) was “no distinct actin fibers and very few focal adhesion points” and the “Ability of substrate … over time” value (HUVECs [4]) was “failed to sustain cell adhesion after 48 hours”.

In the case of “(C16)2-Glu-C2-KSSPHSRNGGGGGGGGGGRGDSP ({(C16)2‑Glu‑C2}-KSSPHSRNGGGGGGGGGGRGDSP) [Pr_c]”, the “Specificity for the α5β1 integrin” value (α5β1 integrin) is listed as “not specific to the α5β1 integrin”, the “HUVEC adhesion level (description)” value (HUVECs [5]; 1, 4 and 12 hours) is listed as “high adhesion at 1 hour” and the “Maintenance / decay of HUVEC adhesion over time” value (HUVECs [5]) is listed as “not maintained at longer time periods”.

With “(C16)2-Glu-C2-KSSPHSRNSSSSSSSSSSRGDSP ({(C16)2‑Glu‑C2}-KSSPHSRNSSSSSSSSSSRGDSP) [Pr_d]” the “HUVEC adhesion level (description)” value (HUVECs [5]; 1, 4 and 12 hours) was “good adhesion out to 4 hours” and the “Maintenance / decay of HUVEC adhesion over time” value (HUVECs [5]) was “extreme drop-off at 12 hours”.

With “(C16)2-Glu-C2-PHSRNSGSGSGSGRGDSP ({(C16)2‑Glu‑C2}-PHSRNSGSGSGSGRGDSP) [PR_a]” the “HUVEC spreading (cell area)” value (HUVECs [1]) was “mostly spread”, the “HUVEC spreading, rank among surfaces” value (HUVECs [1]) was “third” and the “HUVEC adhesion compared with FN” value (HUVECs [5]; 1 hour) was “no statistical difference”. For the same molecule, the “HUVEC adhesion compared with FN” value (HUVECs [5]; 4 hours) was “no difference in adhesion”, the “HUVEC adhesion compared with FN” value (HUVECs [5]; 12 hours) was “statistically higher than FN” and the “Ability of substrate … over time” value (HUVECs [4]) was “effectively adhered”.

In the case of “(C16)2-Glu-C2-PHSRNSGSGSGSGSGRGDSP ({(C16)2‑Glu‑C2}-PHSRNSGSGSGSGSGRGDSP) [Pr_e]”, the “HUVEC adhesion compared with FN, overall” value (HUVECs [5]; 1, 4 and 12 hours) is reported as “superior cell adhesion performance; also recorded: outperformed”, the “HUVEC adhesion compared with Pr_a, overall” value (HUVECs [5]; 1, 4 and 12 hours) is reported as “superior cell adhesion performance; also recorded: outperformed” and the “HUVEC adhesion compared with FN” value (HUVECs [5]; 1 hour) is reported as “higher HUVEC adhesion”. The “HUVEC adhesion compared with Pr_a” value (HUVECs [5]; 1 hour) was “higher HUVEC adhesion”, the “HUVEC adhesion compared with FN” value (HUVECs [5]; 4 hours) was “higher adhesion than FN” and the “HUVEC adhesion compared with Pr_a” value (HUVECs [5]; 4 hours) was “no statistical difference”. The “HUVEC adhesion compared with FN” value (HUVECs [5]; 12 hours) was “statistically higher than FN” and the “HUVEC adhesion compared with Pr_a” value (HUVECs [5]; 12 hours) was “not statistically different”.

For “FN: Human fibronectin-coated round coverslips (BD Biosciences), positive control”, the “HUVEC spreading (cell area)” value (HUVECs [1]) was “mostly spread”, the “HUVEC spreading, rank among surfaces” value (HUVECs [1]) was “second” and the “Fibronectin secretion by adhered HUVECs” value (HUVECs [2]) was “fully covered with secreted fibronectin”. The “Actin stress fibers and focal contacts” value (HUVECs [3]; 1-72 hours) was “displayed actin stress fibers and focal contacts” and the “Fibronectin (ECM) production by adhered HUVECs” value (HUVECs [6]) was “allow both cell adhesion and ECM production; also recorded: allowed attached cells to produce fibronectin”.

With {(C16)2‑Glu‑C2″}-KSSPHSRNSGSGSGSGSGRGDSP [PR_b peptide-amphiphile (C16)2-Glu-C2-KSSPHSRNSGSGSGSGSGRGDSP] the “reduction of binding against stealth liposomes with about 2.5 mol % PR_b” value [7] was 10 fold and the “increase of binding against 2.5 mol % GRGDSP low PEG2000 liposomes” value [8] was roughly 100 fold.

B1: GRGDSP peptide-amphiphile (C16)2-Glu-C2-KAbuGRGDSPAbuK (peptide)
peptide: {(C16)2‑Glu‑C2}-K[Abu]GRGDSP[Abu]K
notes: also called GRGDSP-targeted liposomes; GRGDSP-functionalized liposomes
B1: binds [8].
